From ChEMBL document CHEMBL2363022, “Malaria Box Schistosomiasis Screening Data” (2013)

Columns and labels:
Assay type in all cases: functional
Schistosoma mansoni [1] = system: Schistosoma mansoni; parameters: scale not given here
Schistosoma mansoni [2] = system: Schistosoma mansoni; parameters: scale not given here; remark: listed apart in the source
Schistosoma mansoni [3] = test: MMV: Toxicity @ 5 uM to 4-5 Schistosoma mansoni adult males after 48 h on a scale of 0 (none) - 4 (most). Includes short descriptors of effects as judged visually (PMID:19597541). Only those Malaria box 'drug-like' cpds yielding the most severe phenotypes vs. somules were tested. Caffrey group UCSF.
Schistosoma mansoni [4] = test: (§1) MMV: Motility assay. Percent change (relative to DMSO controls) @ 5 uM of movement of 4-5 Schistosoma mansoni adult males after 72 h as measured by the Consensus Voting Luminance Difference algorithm available on WormAssay (PMID:22303493). Occasional incongruence ocurrs between the motility scores and the visually adjudicated 'toxicity scores'. In these cases the 'toxicity score' should be prioritized. Only those Malaria box 'Drug-like' cpds yielding the most severe phenotypes vs. somules were tested. Caffrey group UCSF.
Schistosoma mansoni [5] = test: as §1, with “24” for “72”
Schistosoma mansoni [6] = test: MMV: Toxicity @ 5 uM to 4-5 Schistosoma mansoni adult males after 24 h on a scale of 0 (none) - 4 (most). Includes short descriptors of effects as judged visually (PMID:19597541). Only those Malaria box 'drug-like' cpds yielding the most severe phenotypes vs. somules were tested. Caffrey group UCSF.
Schistosoma mansoni [7] = test: as §1, with “48” for “72”
Schistosoma mansoni [8] = test: MMV: Toxicity @ 5 uM to 4-5 Schistosoma mansoni adult males after 72 h on a scale of 0 (none) - 4 (most). Includes short descriptors of effects as judged visually (PMID:19597541). Only those Malaria box 'drug-like' cpds yielding the most severe phenotypes vs. somules were tested. Caffrey group UCSF.
Schistosoma mansoni [9] = system: Schistosoma mansoni; parameters: scale not given here; remark: listed apart in the source

| SMILES | Toxicity (Schistosoma mansoni [1]) | Toxicity (Schistosoma mansoni [2]) | Toxicity (Schistosoma mansoni [3]) | Motility (Schistosoma mansoni [4]) | Motility (Schistosoma mansoni [5]) | Toxicity (Schistosoma mansoni [6]) | Motility (Schistosoma mansoni [7]) | Toxicity (Schistosoma mansoni [8]) | Toxicity (Schistosoma mansoni [9]) |
| --- | --- | --- | --- | --- | --- | --- | --- | --- | --- |
| CC(C)=CCN1CCC(C(=O)Nc2ccc(-c3nc4ccccc4[nH]3)cc2)CC1 | 1 | 1 | 0 | 119 | 139.1 | 0 | 93.7 | 0 | 1 |
| O=C(Nc1cccc(C(F)(F)F)c1)c1cc(Cl)ccc1O | 4 | 4 | 4 | 0.7 | 0.5 | 4 | 0.4 | 4 | 4 |
| COc1ccc2nc(C)cc(Nc3ccc(Cl)cc3)c2c1 | 4 | 4 | 2 | Slow, on sides, dark | 75.2 | 2 | 87.4 | 3 | 3 |
| CCn1nc(-c2ccc(C(=O)OC)cc2)nc2c(=O)n(C)c(=O)nc1-2 | 4 | 4 | 0 | 78.5 | 99.1 | 0 | 97 | 0 | 4 |
| CC(C)(C)c1ccc(C(=O)Nc2nc3ccccc3s2)cc1 | 0 | 0 | 0 | 118 | 58.5 | 0 | 113.8 | 0 | 2 |
| Cl.OC(CNCc1ccccc1)Cn1c2ccccc2c2ccccc21 (stereo not drawn) | 4 | 4 | 0 | No effect | 38.1 | 0 | 49.4 | 0 | 4 |
| O=C(Nc1nc(-c2ccccn2)cs1)c1ccccc1Br | 4 | 2 | 0 | 88 | 69.2 | 0 | 80.4 | 0 | 2 |
| Cc1cc(N2CCCC2)nc(Nc2ccc(NC(=O)CCc3ccccc3)cc2)n1 | 4 | 4 | 3 | Slow | 28.9 | 2 | 104.8 | 1 | 0 |
| O=C(O)C(=O)O.Oc1ccc(Br)cc1CN1CCN(Cc2cccc(F)c2)CC1 | 1 | 1 | 1 | Overactive | 233 | 1 | 202.5 | 1 | 1 |
| CCN(CC)CCNc1ncnc2c1[nH]c1ccc(Br)cc12 | 4 | 4 | 0 | No effect | No effect | 0 | 119 | 0 | 4 |
| COc1cccc(O)c1CN1CCC2(CCCN(Cc3ccc(F)cc3)C2)C1 (stereo not drawn) | 3 | 2 | 0 | 92.4 | 168.1 | 0 | 133.2 | 0 | 3 |
| CCCCc1ccc(NS(=O)(=O)c2cc3c4c(c2)CCN4C(=O)CC3)cc1 | 0 | 0 | 0 | 80.4 | 109.4 | 0 | 170.6 | 0 | 2 |
